How the values were obtained:
[1] = target: phosphorylated BTK in Ramos cells (Homo sapiens (Human), UniProt Q06187); assay: Determination of phosphorylated BTK in Ramos cells (BTK phospho-Y223 HTRF); assay type: cell-based; details: anti-human IgM + hydrogen peroxide stimulation
Outline: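 BTK Y223 phosphorylation measured by HTRF (665/615 nm) in lysates of Ramos cells. Cells were serum-starved 2 h, exposed to compound for 1 h (final 0.00018–3.0 μM, 0.3% DMSO), then stimulated 10 min with 10 μg/mL anti-IgM and 3.3 mM H2O2. IC50 derived from percent inhibition between unstimulated and stimulated controls.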

[2] = target: BTK recombinant protein (Homo sapiens (Human), UniProt Q06187); assay: Determination of biochemical BTK (Z'-LYTE kinase assay)
Chain of BTK recombinant protein (Q06187 whole entry): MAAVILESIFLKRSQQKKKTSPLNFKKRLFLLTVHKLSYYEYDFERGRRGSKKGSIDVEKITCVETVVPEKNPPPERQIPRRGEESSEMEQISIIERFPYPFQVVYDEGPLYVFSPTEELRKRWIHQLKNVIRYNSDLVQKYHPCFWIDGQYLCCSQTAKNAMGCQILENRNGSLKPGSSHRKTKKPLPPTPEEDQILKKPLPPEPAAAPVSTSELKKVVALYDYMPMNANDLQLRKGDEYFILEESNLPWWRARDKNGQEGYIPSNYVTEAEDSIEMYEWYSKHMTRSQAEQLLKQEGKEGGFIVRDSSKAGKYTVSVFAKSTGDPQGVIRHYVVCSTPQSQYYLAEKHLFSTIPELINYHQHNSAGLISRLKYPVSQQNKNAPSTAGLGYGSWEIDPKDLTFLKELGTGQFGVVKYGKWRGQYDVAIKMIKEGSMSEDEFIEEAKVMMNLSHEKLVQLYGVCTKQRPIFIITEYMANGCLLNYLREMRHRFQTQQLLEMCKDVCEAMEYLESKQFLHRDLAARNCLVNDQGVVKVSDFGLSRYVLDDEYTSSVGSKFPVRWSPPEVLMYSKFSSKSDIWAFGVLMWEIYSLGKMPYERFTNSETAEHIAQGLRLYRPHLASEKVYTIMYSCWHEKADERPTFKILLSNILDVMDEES
Outline: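 Human BTK recombinant kinase (3.32 nM final) was preincubated with compound for 30 min at 4 °C. Reaction ran 1 h at room temperature with Tyr01 FRET peptide (2 μM) and ATP (32 μM); development protease then added. Coumarin 445 nm/fluorescein 520 nm emission ratio (400 nm excitation) gave inhibition across 8 concentrations, 3000–1.37 nM.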

Chain of phosphorylated BTK in Ramos cells (Q06187 whole entry): as above

Work on `C[C@@H]1CN(c2ccc(Nc3cc(-c4ccnc(-n5ncn6c7c(cc6c5=O)CC(C)(C)C7)c4CO)cn(C)c3=O)nc2)[C@@H](C)CN1C1COC1` [Compound 193] yielded an IC50 [1] of 6 nM and an IC50 [2] of 12 nM.
In the case of `COC1CN(c2ccc(Nc3cc(-c4ccnc(-n5ccn6c7c(cc6c5=O)CC(C)(C)C7)c4CO)cn(C)c3=O)nc2)C1` [Compound 35], the IC50 [1] is reported as 6 nM and the IC50 [2] is reported as 17 nM.
`C[C@@H]1[C@H](C)N(c2ccc(Nc3cc(-c4ccnc(-n5ccn6c7c(cc6c5=O)CC(C)(C)C7)c4CO)cn(C)c3=O)nc2)CCN1C1COC1` [Compound 234] showed an IC50 [1] of 10 nM and an IC50 [2] of 32 nM.
Compound `CC[C@H]1CN(C2COC2)CCN1c1ccc(Nc2cc(-c3ccnc(-n4ccn5c6c(cc5c4=O)CC(C)(C)C6)c3CO)cn(C)c2=O)nn1` [Compound 217] has an IC50 [1] of 10 nM and an IC50 [2] of 8 nM.
Compound `CCn1cc(-c2ccnc(-n3ccn4c5c(cc4c3=O)CC(C)(C)C5)c2CO)cc(Nc2ccc(N3CCOC[C@@H]3C)nn2)c1=O` [Compound 214] has an IC50 [1] of 24 nM and an IC50 [2] of 31 nM.
For `C[C@H]1CN(C2COC2)CCN1c1ccc(Nc2cc(-c3ccnc(-n4ncn5c6c(cc5c4=O)CC(C)(C)C6)c3CO)cn(C)c2=O)nn1` [Compound 213], the IC50 [1] was 15 nM and the IC50 [2] was 15 nM.
Compound `CC[C@H]1CN(C2COC2)CCN1c1ccc(Nc2cc(-c3ccnc(-n4ncn5c6c(cc5c4=O)CC(C)(C)C6)c3CO)cn(C)c2=O)nc1` [Compound 224] has an IC50 [1] of 7 nM and an IC50 [2] of 9 nM.
Compound `C[C@H]1CN(C2COC2)C(=O)N1c1ccc(Nc2cc(-c3ccnc(-n4ccn5c6c(cc5c4=O)CC(C)(C)C6)c3CO)cn(C)c2=O)nc1` [Compound 123] has an IC50 [1] of 9 nM and an IC50 [2] of 13 nM.
`C[C@@H](CNC1COC1)Nc1ccc(Nc2cc(-c3ccnc(-n4ccn5c6c(cc5c4=O)CC(C)(C)C6)c3CO)cn(C)c2=O)nc1` [Compound 127] showed an IC50 [1] of 18 nM and an IC50 [2] of 10 nM.
With `Cn1cc(-c2ccnc(-n3ccn4c5c(cc4c3=O)CC(C)(C)C5)c2CO)cc(Nc2ccc(N3C4CC3CN(C3COC3)C4)cn2)c1=O` [Compound 235] the IC50 [1] was 13 nM and the IC50 [2] was 22 nM.
Work on `Cn1nc(-c2ccnc(-n3ccn4c5c(cc4c3=O)CC(C)(C)C5)c2CO)cc(Nc2cn(CCF)nn2)c1=O` [Compound 32] yielded an IC50 [1] of 30 nM and an IC50 [2] of 17 nM.
`Cc1c(-c2cc(Nc3ccc(N4CCN(C5COC5)C[C@@H]4C)cn3)c(=O)n(C)c2)ccnc1-n1ccn2c3c(cc2c1=O)CC(C)(C)C3` [Compound 12] was tested, and the IC50 [1] was 13 nM and the IC50 [2] was 230 nM.
Compound `CC1Cc2cc3c(=O)n(-c4nccc(-c5cc(Nc6cc7n(n6)CCOC7)c(=O)n(C)c5)c4CO)ccn3c2C1` (stereo not drawn) [Compound 181] has an IC50 [1] of 38 nM and an IC50 [2] of 12 nM.
`CCn1cc(-c2ccnc(-n3ccn4c5c(cc4c3=O)CC(C)(C)C5)c2CO)cc(Nc2ccc(N3CCN(C4COC4)C[C@@H]3C)cn2)c1=O` [Compound 202] was tested, and the IC50 [1] was 17 nM and the IC50 [2] was 8 nM.
`C[C@H]1CN(C2CCOC2)CCN1c1ccc(Nc2cc(-c3ccnc(-n4ccn5c6c(cc5c4=O)CC(C)(C)C6)c3CO)cn(C)c2=O)nc1` (stereo partly drawn) [Compound 66] gave an IC50 [1] of 2 nM and an IC50 [2] of 11 nM.
With `CCN(CCOC)c1ccc(Nc2cc(-c3ccnc(-n4ccn5c6c(cc5c4=O)CC(C)(C)C6)c3CO)cn(C)c2=O)nc1` [Compound 1, 2-(5-((5-(ethyl (2-methoxyethyl)amino)pyridin-2-yl)amino)-3′-(hydroxymethyl)-1-methyl-6-oxo-1,6-dihydro-[3,4′-bispyridin]-2′-yl)-7,7-dimethyl-7,8-dihydro-2H-cyclopenta[4,5]pyrrolo[1,2-a]pyrazin-1(6H)-one] the IC50 [1] was 5 nM and the IC50 [2] was 35 nM.
`COCCN1CCn2nc(Nc3cc(-c4ccnc(-n5nc(C)n6c7c(cc6c5=O)CC(C)(C)C7)c4CO)cn(C)c3=O)cc2C1C` (racemic) [Compound 121] was tested, and the IC50 [1] was 21 nM and the IC50 [2] was 23 nM.
Compound `Cn1cc(Nc2cc(-c3ccnc(-n4ccn5c6c(cc5c4=O)CCC6)c3CO)cn(C)c2=O)nn1` [Compound 73] has an IC50 [1] of 116 nM and an IC50 [2] of 216 nM.
With `C[C@H]1CNCCN1c1ccc(Nc2cc(-c3ccnc(-n4ccn5c6c(cc5c4=O)CC(C)(C)C6)c3CO)cn(C)c2=O)nc1` [Compound 96] the IC50 [1] was 5 nM and the IC50 [2] was 7 nM.
Compound `C[C@H]1CN(C2COC2)CCN1c1ccc(Nc2cc(-c3ccnc(-n4ccn5c(cc6cccnc65)c4=O)c3CO)cn(C)c2=O)nc1` [Compound 67] has an IC50 [1] of 60 nM and an IC50 [2] of 82 nM.
Work on `CC1c2cc(Nc3cc(-c4ccnc(-n5ncn6c7c(cc6c5=O)CC(C)(C)C7)c4CO)cn(C)c3=O)nn2CCN1C1COC1` (stereo not drawn) [Compound 118] yielded an IC50 [1] of 1 nM and an IC50 [2] of 5 nM.
For `COCCN1CCn2nc(Nc3cc(-c4ccnc(-n5ccn6c7c(cc6c5=O)CC(C)(C)C7)c4CO)cn(C)c3=O)cc2C1` [Compound 70, 2-(3′-(hydroxymethyl)-5-((5-(2-methoxymethyl)-4,5,6,7-tetrahydropyrazolo[1,5-a]pyrazin-2-yl)amino)-1-methyl-6-oxo-1,6-dihydro-[3,4′-bispyridin]-2′-yl)-7,7-dimethyl-7,8-dihydro-2H-cyclopenta[4,5]pyrrolo[1,2-a]pyrazin-1(6H)-one], the IC50 [1] was 2 nM and the IC50 [2] was 10 nM.
`Cc1ccc2c(c1)cc1c(=O)n(-c3nccc(-c4cc(Nc5ccc(N6CCN(C7COC7)C[C@@H]6C)cn5)c(=O)n(C)c4)c3CO)ccn12` [Compound 188] was tested, and the IC50 [1] was 39 nM and the IC50 [2] was 41 nM.
Work on `CC(C)n1cc(Nc2cc(-c3ccnc(-n4ccn5c6c(cc5c4=O)CC(C)(C)C6)c3CO)nn(C)c2=O)nn1` [Compound 7] yielded an IC50 [1] of 3 nM and an IC50 [2] of under 1 nM.
In the case of `Cn1cc(-c2ccnc(-n3ccn4c5c(cc4c3=O)CC(C)(C)C5)c2CO)cc(Nc2cc3n(n2)CCN(C#N)C3)c1=O` [Compound 135, 2-((2′-(7,7-dimethyl-1-oxo-1,6,7,8-tetrahydro-2H-cyclopenta[4,5]pyrrolo[1,2-a]pyrazin-2-yl)-3′-(hydroxymethyl)-1-methyl-6-oxo-1,6-dihydro-[3,4′-bispyridin]-5-yl)amino)-6,7-dihydropyrazolo[1,5-a]pyrazin-5(4H)-nitrile], the IC50 [1] is reported as 5 nM and the IC50 [2] is reported as 8 nM.
For `Cc1nn(-c2nccc(-c3cc(Nc4ccc(N5CCN(C6COC6)C[C@@H]5C)cn4)c(=O)n(C)c3)c2CO)c(=O)c2cc3c(n12)CC(C)(C)C3` [Compound 104], the IC50 [1] was 6 nM and the IC50 [2] was 10 nM.
For `COCc1c(-c2cc(Nc3ccc(N4CCN(C5COC5)C[C@@H]4C)cn3)c(=O)n(C)c2)ccnc1-n1ccn2c3c(cc2c1=O)CC(C)(C)C3` [Compound 228], the IC50 [1] was 139 nM and the IC50 [2] was 171 nM.
`C[C@H]1CN(CC#N)CCN1c1ccc(Nc2cc(-c3ccnc(-n4ccn5c6c(cc5c4=O)CC(C)(C)C6)c3CO)cn(C)c2=O)nc1` [Compound 102] gave an IC50 [1] of 2 nM and an IC50 [2] of 11 nM.
With `Cn1cc(-c2ccnc(-n3ccn4c5c(cc4c3=O)CCC5)c2CO)cc(Nc2cc3n(n2)CCN(C#N)C3)c1=O` [Compound 142] the IC50 [1] was 60 nM and the IC50 [2] was 51 nM.
`Cn1nc(Nc2cc(-c3ccnc(-n4ccn5c6c(cc5c4=O)CC(C)(C)C6)c3CO)cn(C)c2=O)cc1C(=O)N1CCOCC1` [Compound 99] gave an IC50 [1] of 4 nM and an IC50 [2] of 6 nM.
In the case of `CC1c2cc(Nc3cc(-c4ccnc(-n5ccn6c7c(cc6c5=O)CC(C)(C)C7)c4CO)cn(C)c3=O)nn2CCN1C1COC1` (stereo not drawn) [Compound 112], the IC50 [1] is reported as 3 nM and the IC50 [2] is reported as 5 nM.
Compound `CCn1nc(-c2ccnc(-n3ccn4c5c(cc4c3=O)CC(C)(C)C5)c2CO)cc(Nc2ccc(N3CCN(C4COC4)C[C@@H]3C)cn2)c1=O` [Compound 14] has an IC50 [1] of 14 nM and an IC50 [2] of 51 nM.
`Cn1cc(-c2ccnc(-n3ccn4c(c(F)c5ccccc54)c3=O)c2CO)cc(Nc2ccc(C3CN(C4COC4)C3)cn2)c1=O` [Compound 183] was tested, and the IC50 [1] was 67 nM and the IC50 [2] was 25 nM.
Compound `CCN1CCn2nc(Nc3cc(-c4ccnc(-n5ncn6c7c(cc6c5=O)CC(C)(C)C7)c4CO)cn(C)c3=O)cc2C1` [Compound 165] has an IC50 [1] of 31 nM and an IC50 [2] of 4 nM.
Work on `CC(C)n1cc(Nc2cc(-c3ccnc(-n4ccn5c6c(cc5c4=O)CC(C)(C)C6)c3CO)cn(C)c2=O)cn1` [Compound 173] yielded an IC50 [1] of 28 nM and an IC50 [2] of 80 nM.
Work on `COCCN1CCn2nc(Nc3cc(-c4ccnc(-n5ncn6c7c(cc6c5=O)CC(C)(C)C7)c4CO)cn(C)c3=O)cc2C1C` (racemic) [Compound 110, (RS)-2-(3′-(hydroxymethyl)-5-((5-(2-methoxyethyl)-4-methyl-4,5,6,7-tetrahydropyrazolo[1,5-a]pyrazin-2-yl)amido)-1-methyl-6-oxo-1,6-dihydro-[3,4′-bispyridin]-2′-yl)-7,7-dimethyl-7,8-dihydro-2H-cyclopenta[4,5]pyrrolo[1,2-d][1,2,4]triazin-1(6H)-one] yielded an IC50 [1] of 2 nM and an IC50 [2] of 2 nM.
Compound `Cn1cc(-c2ccnc(-n3ncn4c5c(cc4c3=O)CC(C)(C)C5)c2CO)cc(Nc2cc3n(n2)CCOC3)c1=O` [Compound 156] has an IC50 [1] of 12 nM and an IC50 [2] of 6 nM.
For `Cn1cc(-c2ccnc(-n3ccn4c5c(cc4c3=O)CCC5)c2CO)cc(Nc2cc3n(n2)CCN(C2COC2)C3)c1=O` [Compound 134], the IC50 [1] was 54 nM and the IC50 [2] was 59 nM.
With `COCCN1C[C@H](C)N(c2ccc(Nc3cc(-c4ccnc(-n5ncn6c7c(cc6c5=O)CC(C)(C)C7)c4CO)cn(C)c3=O)nc2)C[C@H]1C` [Compound 207] the IC50 [1] was 8 nM and the IC50 [2] was 11 nM.
Work on `COc1ccc(Nc2cc(-c3ccnc(-n4ccn5c6c(cc5c4=O)CC(C)(C)C6)c3CO)cn(C)c2=O)nc1` [Compound 126] yielded an IC50 [1] of 20 nM and an IC50 [2] of 26 nM.
In the case of `CCn1cc(Nc2cc(-c3ccnc(-n4ccn5c6c(c(F)c5c4=O)CCCC6)c3CO)cn(C)c2=O)cn1` [Compound 180], the IC50 [1] is reported as 84 nM and the IC50 [2] is reported as 16 nM.
With `Cn1cc(-c2ccnc(-n3ccn4c5c(cc4c3=O)CC(C)(C)C5)c2CO)cc(Nc2cc3n(n2)CCOC3)c1=O` [Compound 162] the IC50 [1] was 6 nM and the IC50 [2] was 1 nM.
